Earlier results, collected in US20040076968A1, “Method for detecting pre-disposition to hepatotoxicity” (priority 2000, published 2004).

Molecular target: T1, UGT1A6*2 allelic variant (Homo sapiens, UniProt P19224, R184S/T181A)
T1 sequence (P19224 27-532 T181A/R184S): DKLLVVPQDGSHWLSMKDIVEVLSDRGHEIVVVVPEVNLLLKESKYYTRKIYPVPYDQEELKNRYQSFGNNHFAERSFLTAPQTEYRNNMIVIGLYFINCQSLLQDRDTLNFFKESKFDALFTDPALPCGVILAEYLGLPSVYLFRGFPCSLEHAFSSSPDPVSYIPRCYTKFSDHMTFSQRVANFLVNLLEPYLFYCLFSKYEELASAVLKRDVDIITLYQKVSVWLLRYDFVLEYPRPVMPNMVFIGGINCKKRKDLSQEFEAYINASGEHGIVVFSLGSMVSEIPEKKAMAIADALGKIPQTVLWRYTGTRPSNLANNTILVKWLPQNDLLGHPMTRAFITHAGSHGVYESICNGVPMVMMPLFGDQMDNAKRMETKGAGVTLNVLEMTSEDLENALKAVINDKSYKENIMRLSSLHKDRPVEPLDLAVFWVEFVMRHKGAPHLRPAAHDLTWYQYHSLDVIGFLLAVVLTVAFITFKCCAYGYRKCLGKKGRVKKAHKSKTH
Settings: cited from earlier work; for metabolism compared with wild-type isoenzyme (in words): UGT1A6*2 expressed in COS cells

Oc1cccc2ccccc12 [1-Naphtol]
metabolism compared with wild-type isoenzyme (in words): normal levels

Oc1cccc(I)c1 [3iodophenol]
metabolism compared with wild-type isoenzyme (in words): normal levels

Cc1cc(=O)oc2cc(O)ccc12 [7-hydroxy-4-methylcoumarin]
metabolism compared with wild-type isoenzyme (in words): normal levels

O=c1ccc2ccc(O)cc2o1 [7-hydroxycoumarin]
metabolism compared with wild-type isoenzyme (in words): normal levels

COc1ccc(O)c(C(C)(C)C)c1 [butylated hydroxy anisole]
rate of metabolism relative to the wild-type isoenzyme (pH 6.4): 27-75%

N[C@@H](Cc1ccc(O)c(O)c1)C(=O)O [levodopa]
activity of UGT1A6 alleles Thr181Ala and Arg184Ser for the substrate: reduced activity
